Reference: the supplement of paper PMC8960247
Structures can show the parent of a compound that is named as a salt. ± gives the standard error.

Legend:
621-102 (TSC2-deficient) [1] = assay: relative viability vs DMSO (fraction); higher = less cytotoxic; conditions: serum: 0.1% FBS, 72 h
UMB1949 (TSC2-deficient) = assay: as above; conditions: serum: 0.1% FBS, 72 h;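 also: renal angiomyolipoma cell lines screened in 384-well plates, viability normalized per plate to DMSO-treated cells, each plate carrying 50 nM rapamycin and 1 µM staurosporine controls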
621-103 (TSC2-rescued) = assay: relative viability vs DMSO; higher = less cytotoxic; conditions: serum: 10% FBS, 72 h
621-102 (TSC2-deficient) [2] = assay: as above; conditions: serum: 10% FBS, 72 h

SMILES | relative viability (621-102 (TSC2-deficient) [1]; 0.0128 nM) | relative viability (621-102 (TSC2-deficient) [1]; 0.064 nM) | relative viability (621-102 (TSC2-deficient) [1]; 0.32 nM) | relative viability (621-102 (TSC2-deficient) [1]; 1.6 nM) | relative viability (621-102 (TSC2-deficient) [1]; 8 nM) | relative viability (621-102 (TSC2-deficient) [1]; 40 nM) | relative viability (621-102 (TSC2-deficient) [1]; 200 nM) | relative viability (621-102 (TSC2-deficient) [1]; 1000 nM) | relative viability (621-102 (TSC2-deficient) [1]; 5000 nM) | relative viability (UMB1949 (TSC2-deficient); 0.0128 nM) | relative viability (UMB1949 (TSC2-deficient); 0.064 nM) | relative viability (UMB1949 (TSC2-deficient); 0.32 nM) | relative viability (UMB1949 (TSC2-deficient); 1.6 nM) | relative viability (UMB1949 (TSC2-deficient); 8 nM) | relative viability (UMB1949 (TSC2-deficient); 40 nM) | relative viability (UMB1949 (TSC2-deficient); 200 nM) | relative viability (UMB1949 (TSC2-deficient); 1000 nM) | relative viability (UMB1949 (TSC2-deficient); 5000 nM) | relative viability (621-103 (TSC2-rescued); 0.0001 µM) [%] | relative viability (621-103 (TSC2-rescued); 0.001 µM) [%] | relative viability (621-103 (TSC2-rescued); 0.01 µM) [%] | relative viability (621-103 (TSC2-rescued); 0.1 µM) [%] | relative viability (621-103 (TSC2-rescued); 1 µM) [%] | relative viability (621-103 (TSC2-rescued); 10 µM) [%] | relative viability (621-102 (TSC2-deficient) [2]; 0.0001 µM) [%] | relative viability (621-102 (TSC2-deficient) [2]; 0.001 µM) [%] | relative viability (621-102 (TSC2-deficient) [2]; 0.01 µM) [%] | relative viability (621-102 (TSC2-deficient) [2]; 0.1 µM) [%] | relative viability (621-102 (TSC2-deficient) [2]; 1 µM) [%] | relative viability (621-102 (TSC2-deficient) [2]; 10 µM) [%]
CN1CC[C@H](c2c(O)cc(O)c3c(=O)cc(-c4ccccc4Cl)oc23)[C@H](O)C1 [Flavopiridol(Alvocidib)] | 1.14 | 1.2 | 1.24 | 1.15 | 0.972 | 0.212 | 0.00428 | 0.00239 | 0.00377 | 1.12 | 1.16 | 1.04 | 1.21 | 1.08 | 0.923 | 0.00682 | 0.00291 | 0.00348 |  |  |  |  |  |  |  |  |  |  |  | 
Nc1ccn([C@@H]2O[C@H](CO)[C@@H](O)[C@@H]2O)c(=O)n1 [Cytarabine] | 1.24 | 1.08 | 1.14 | 0.885 | 1.01 | 0.505 | 0.244 | 0.096 | 0.0178 | 0.98 | 0.941 | 0.967 | 0.962 | 0.974 | 0.929 | 0.176 | 0.00531 | 0.0022 |  |  |  |  |  |  |  |  |  |  |  | 
CC(C)C[C@@H](C=O)NC(=O)[C@H](CC(C)C)NC(=O)[C@H](CC(C)C)NC(=O)OCc1ccccc1 [MG132] | 0.611 | 0.586 | 0.383 | 0.272 | 0.148 | 0.00944 | 0.00319 | 0.00253 | 0.0116 | 0.846 | 0.0534 | 0.0466 | 0.00704 | 0.00406 | 0.00242 | 0.00153 | 0.000971 | 0.00561 |  |  |  |  |  |  |  |  |  |  |  | 
CCS(=O)(=O)c1cccc(-c2cc(C(=O)NC3CCN(C)CC3)c(C)c3[nH]c4ncc(C)cc4c23)c1 [TAK-901] |  |  |  |  |  |  |  |  |  | 0.561 | 0.0956 | 0.0821 | 0.0562 | 0.0574 | 0.0411 | 0.00479 | 0.00175 | 0.0045 | 108 ± 2.1 | 97 ± 2 | 81.4 ± 1.8 | 72.5 ± 1.6 | 28.2 ± 2.3 | 5.6 ± 0.7 | 94.4 ± 2 | 98.3 ± 4.1 | 90 ± 2.7 | 75.451 ± 0.045 | 45.4 ± 2 | 7.72 ± 0.56
COC1=C2C[C@@H](C)C[C@H](OC)[C@H](O)[C@@H](C)/C=C(\C)[C@H](OC(N)=O)[C@@H](OC)/C=C\C=C(/C)C(=O)NC(=CC1=O)C2=O [Geldanamycin] | 0.476 | 0.259 | 0.399 | 0.172 | 0.306 | 0.27 | 0.12 | 0.0204 | 0.0125 |  |  |  |  |  |  |  |  |  | 98.8 ± 6.2 | 77.8 ± 1.1 | 33.3 ± 7.4 | 10.09 ± 0.062 | 3.46 ± 0.37 | 3.05 ± 0.2 | 90.7 ± 2.4 | 91.7 ± 1.6 | 62.3 ± 3 | 39.82 ± 0.13 | 28.8 ± 1.5 | 8.32 ± 0.19
Cc1ccc([N+](=O)[O-])cc1S(=O)(=O)N(C)/N=C/c1cnc2ccc(Br)cn12 [PIK-75 Hydrochloride] |  |  |  |  |  |  |  |  |  | 0.512 | 0.42 | 0.371 | 0.417 | 0.126 | 0.00679 | 0.00475 | 0.00356 | 0.00221 |  |  |  |  |  |  |  |  |  |  |  | 
COc1cccc2c1C(=O)c1c(O)c3c(c(O)c1C2=O)C[C@@](O)(C(=O)CO)C[C@@H]3O[C@H]1C[C@H](N)[C@H](O)[C@H](C)O1 [Doxorubicin (adriamycin)] | 0.343 | 0.2 | 0.0923 | 0.107 | 0.128 | 0.0761 | 0.0129 | 0.00359 | 0.00442 |  |  |  |  |  |  |  |  |  |  |  |  |  |  |  |  |  |  |  |  | 
CN(C)C1CCN(C(=O)c2ccc(NC(=O)Nc3ccc(-c4nc(N5CCOCC5)nc(N5CCOCC5)n4)cc3)cc2)CC1 [PKI587] | 0.515 | 0.487 | 0.471 | 0.338 | 0.266 | 0.196 | 0.128 | 0.0333 | 0.0113 |  |  |  |  |  |  |  |  |  |  |  |  |  |  |  |  |  |  |  |  | 
Cc1ccc(-n2nc(C(C)(C)C)cc2NC(=O)Nc2ccc(OCCN3CCOCC3)c3ccccc23)cc1 [BIRB 796] |  |  |  |  |  |  |  |  |  |  |  |  |  |  |  |  |  |  | 98 ± 1.9 | 98.8 ± 1.3 | 97.2 ± 1 | 98.7 ± 1.7 | 94.18 ± 0.14 | 95.5 ± 1.8 | 104 ± 3.1 | 107 ± 3.4 | 98.8 ± 4.4 | 103.8 ± 0.27 | 103 ± 4.7 | 104 ± 1.4
CC[C@H]1OC(=O)[C@H](C)[C@@H](O[C@H]2C[C@@](C)(OC)[C@@H](O)[C@H](C)O2)[C@H](C)[C@@H](O[C@@H]2O[C@H](C)C[C@H](N(C)C)[C@H]2O)[C@](C)(OC)C[C@@H](C)C(=O)[C@H](C)[C@@H](O)[C@]1(C)O [Clarithromycin (Biaxin,Klacid)] |  |  |  |  |  |  |  |  |  |  |  |  |  |  |  |  |  |  | 106 ± 2 | 91.4 ± 2.9 | 104 ± 1.4 | 102 ± 1.1 | 102 ± 3.7 | 93.43 ± 0.4 | 118 ± 2 | 113 ± 2.8 | 108 ± 0.65 | 115 ± 2.5 | 105 ± 0.45 | 98.8 ± 1.5
CCCc1nc2c(C)cc(-c3nc4ccccc4n3C)cc2n1Cc1ccc(-c2ccccc2C(=O)O)cc1 [Telmisartan] |  |  |  |  |  |  |  |  |  |  |  |  |  |  |  |  |  |  | 101 ± 2.7 | 97.8 ± 4.9 | 95.37 ± 0.79 | 103.34 ± 0.025 | 101 ± 4.2 | 107 ± 2.6 | 104 ± 2.5 | 104 ± 1.6 | 103 ± 2.6 | 105 ± 1.2 | 112 ± 6.6 | 113.2 ± 0.47
CS(=O)(=O)CCNCc1ccc(-c2ccc3ncnc(Nc4ccc(OCc5cccc(F)c5)c(Cl)c4)c3c2)o1 [Lapatinib Ditosylate] |  |  |  |  |  |  |  |  |  |  |  |  |  |  |  |  |  |  | 97.35 ± 0.2 | 96.4 ± 3.8 | 104 ± 1.5 | 101 ± 3.3 | 99.1 ± 4 | 48.9 ± 1.6 | 102.2 ± 0.43 | 100 ± 1.8 | 110 ± 2.3 | 101.41 ± 0.072 | 103 ± 2.5 | 82.9 ± 3.4
